Source: PubChem BioAssay (NCI)
Several values for one entry are separate records, joined by “and”; a condition that tells them apart may be missing. Equal entries are not always repeated.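 Each compound was tested at five concentrations against cells in 96-well plates for 48 hours. At the GI50, growth is halved. TGI is the concentration that stops growth completely.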

How the values were obtained:
Assay in all cases: NCI anticancer screen, dose series, 48 h
OVCAR-8 ovarian = system: OVCAR-8 ovarian
SK-MEL-2 melanoma = system: SK-MEL-2 melanoma
HL-60(TB) leukemia = system: HL-60(TB) leukemia
OVCAR-4 ovarian = system: OVCAR-4 ovarian
EKVX NSCLC = system: EKVX NSCLC
SK-MEL-28 melanoma = system: SK-MEL-28 melanoma
LOX IMVI melanoma = system: LOX IMVI melanoma
OVCAR-3 ovarian = system: OVCAR-3 ovarian
HOP-92 NSCLC = system: HOP-92 NSCLC
SF-539 CNS = system: SF-539 CNS

SMILES | TGI (OVCAR-8 ovarian) | TGI (SK-MEL-2 melanoma) | TGI (HL-60(TB) leukemia) | TGI (OVCAR-4 ovarian) | TGI (EKVX NSCLC) | TGI (SK-MEL-28 melanoma) | TGI (LOX IMVI melanoma) | TGI (OVCAR-3 ovarian) | TGI (HOP-92 NSCLC) | TGI (SF-539 CNS) | GI50 (OVCAR-8 ovarian) | GI50 (SK-MEL-2 melanoma) | GI50 (HL-60(TB) leukemia) | GI50 (OVCAR-4 ovarian) | GI50 (EKVX NSCLC) | GI50 (SK-MEL-28 melanoma) | GI50 (LOX IMVI melanoma) | GI50 (OVCAR-3 ovarian) | GI50 (HOP-92 NSCLC) | GI50 (SF-539 CNS)
O=C1NC(=O)C2C1C1C=C3c4ccccc4N(c4ccccc4)C32[C@H]2C(=O)NC(=O)[C@@H]12 (stereo not given in full) | > 100 µM | > 100 µM | > 100 µM | > 100 µM | > 100 µM | > 100 µM | > 100 µM | > 100 µM | > 100 µM | > 100 µM | – | – | – | – | – | – | – | – | – | –
N#Cc1ccc(C(C2C(=O)NC(=O)NC2=O)C2C(=O)NC(=O)NC2=O)cc1 | > 100 µM | > 100 µM | > 100 µM | > 100 µM | > 100 µM | > 100 µM | > 100 µM | > 100 µM | > 100 µM | > 100 µM | – | – | – | – | – | – | – | – | – | –
NC(=S)N/N=C(\CCC(=O)Nc1ccccc1[N+](=O)[O-])CC(=O)c1ccco1 | > 100 µM | > 100 µM | > 100 µM | > 100 µM | > 100 µM | > 100 µM | > 100 µM | > 100 µM | > 100 µM | > 100 µM | – | – | – | – | – | – | – | – | – | –
C=C(CN1CCN(c2ccccc2C(F)(F)F)CC1)c1ccc(C(=O)Nc2ccccc2N)cc1 | > 100 µM | > 95.1 µM | 0.756 µM | > 84.3 µM | > 100 µM | > 100 µM | 42.2 µM | 38.3 µM | 30.9 µM | 41.7 µM | 3.84 µM | 10.3 µM | 0.037 µM | 6.53 µM | 6.7 µM | 10.4 µM | 5.86 µM | 5.92 µM | 1.85 µM | 3.27 µM
CCc1cccc(CC)c1NC(=O)CC1SC(N)=NC1=O (stereo not given) | > 100 µM | > 100 µM | > 100 µM | > 100 µM | > 100 µM | > 100 µM | > 100 µM | > 100 µM | > 100 µM | > 100 µM | – | – | – | – | – | – | – | – | – | –
CCN(CC)CC(O)COc1c(Br)c(Br)c(Br)c2c1OC(C)(C)C2 (stereo not given) | 36.7 µM | 15.4 µM | 3.53 µM | 22.8 µM | 9.64 µM | 3.24 µM | 3.67 µM | 16.3 µM | 6.05 µM | 16.4 µM | 11.4 µM | 3.55 µM | 1.73 µM | 6.56 µM | 3.04 µM | 1.62 µM | 2.08 µM | 3.47 µM | 1.35 µM | 4.34 µM
CC(=O)OCC1OC([Se-])C(OC(C)=O)C(OC(C)=O)C1OC(C)=O.N#CCC[PH+](CCC#N)CCC#N.[Au+] (stereo not given) | > 93.5 µM | 48.4 µM | 4.31 µM | 65.8 µM | 8.21 µM | 60.5 µM | 28.9 µM | 49.7 µM | 52.2 µM | 41.2 µM | 12.7 µM | 11.8 µM | 1.87 µM | 13.8 µM | 3.12 µM | 9.01 µM | 4.34 µM | 7.3 µM | 12.1 µM | 15.3 µM
CCCOc1ccc(/C=N/Nc2cc(C)nc3ccc(Cl)cc23)cc1 | 4.53 µM | 3.22 µM | 3.78 µM | 3.2 µM | 3.05 µM | 3.15 µM | 3.1 µM | 3.7 µM | 3.11 µM | 3.2 µM | 2.31 µM | 1.73 µM | 1.83 µM | 1.71 µM | 1.64 µM | 1.73 µM | 1.7 µM | 2.13 µM | 1.51 µM | 1.79 µM
COc1cc2c(cc1OCCCCn1c(-c3cccs3)nc3ccccc31)N=C[C@@H]1CCCN1C2=O | > 100 µM | 4.68 µM | 53.4 µM | 4.67 µM | 11.1 µM | 3.27 µM | 3.93 µM | 4.29 µM | 5.46 µM | 3.66 µM | 2.58 µM | 1.47 µM | 5.18 µM | 1.61 µM | 3.36 µM | 1.53 µM | 0.789 µM | 1.72 µM | 1.33 µM | 1.72 µM
O=C(/C=C/c1nnc2n(Cc3ccccc3)c(=O)c3c4c(sc3n12)CCCC4)c1ccccc1 | 0.419 µM | – | > 100 µM | – | > 100 µM | – | – | – | > 100 µM | > 100 µM | 0.0387 µM | 3.2 µM | 0.407 µM and 0.332 µM | – | > 100 µM | – | 3.48 µM | – | 1.55 µM | > 100 µM
O=C1Oc2cc3c(c4cccc1c24)OCN(c1ccccc1)C3 | > 100 µM | > 100 µM | > 100 µM | > 100 µM | > 100 µM | > 100 µM | > 100 µM | > 100 µM | > 100 µM | – | – | – | – | – | – | – | – | – | – | –
CC1(C)OC2C(CO)OC(n3ccc(N)nc3=O)C2O1 (stereo not given) | > 100 µM | > 100 µM | > 100 µM | – | > 100 µM | > 100 µM | > 100 µM | > 100 µM | > 100 µM | > 100 µM | – | – | – | – | – | – | – | – | – | –
NC1=NC2=C(CCCC2)C(c2cccs2)S1 (stereo not given) | > 100 µM | > 100 µM | > 100 µM | > 100 µM | > 100 µM | > 100 µM | – | > 100 µM | > 100 µM | > 100 µM | – | – | – | – | – | – | – | – | – | –
Cc1cc(C(O)(c2ccc(Nc3ccccc3)cc2)c2ccc(Nc3ccc(S(=O)(=O)O)cc3)cc2)ccc1N (stereo not given) | 3.57 µM | 4.68 µM | 6.12 µM | 3.39 µM | 3.89 µM | – | 2.17 µM | 2.49 µM | 2.54 µM | 3.32 µM | 1.08 µM | 1.55 µM | 1.66 µM | 1.31 µM | 1.49 µM | – | 0.975 µM | 1.11 µM | 1.03 µM | 1.64 µM
CCC(C)(C)[C@H](NC(=O)[C@H]1CCCCN1C)C(=O)N(C)[C@H](C[C@@H](OC(C)=O)c1nc(C(=O)N[C@@H](Cc2ccccc2)C[C@H](C)C(=O)O)cs1)C(C)C | > 16.7 µM | > 16.7 µM | < 0.00167 µM | > 16.7 µM | > 16.7 µM | – | > 16.7 µM | 0.00472 µM | > 16.7 µM | < 0.00167 µM | < 0.00167 µM | < 0.00167 µM | < 0.00167 µM | 0.00798 µM | < 0.00167 µM | – | < 0.00167 µM | < 0.00167 µM | 0.00661 µM | < 0.00167 µM
